Experiments:
[1] = tested on: TC-1 tumors; assay: TC-1 tumor model: tumor growth and survival; type: in vivo, mouse; settings: for mice survived: TC-1 tumor model, day 22
Procedure: C57BL/6J mice were injected with 7×10^4 TC-1 cells per mouse or 1×10^5B16F10 cells per mouse in the right flank. Treatment in respective groups was started when tumors reached an average size of approximately 0.075 cm^3. […] Mice were treated daily with IP injection at a dose of 50 mg kg-1.
For vaccination, TC-1-specific E7 peptide (a nine amino acid peptide, […] (SEQ ID NO: 1); 100 μg per mouse per 100 μl; Celtak Bioscience) or B16-specific gp10025-33 nonamer peptide ([…] (SEQ ID NO: 2); 100 μg per mouse per 100 μl; AnaSpec) were used. Both the vaccines were mixed with a small 13-mer nonnatural pan-HLA DR-binding epitope (PADRE (SEQ ID NO: 3); aK-Cha-[…]a (SEQ ID NO: 4), where ‘a’ is d-alanine, and ‘Cha’ is 1-cyclohexylalanine, T helper epitope, 20 μg per mouse; Celtak Bioscience) and QuilA (adjuvant, 10 μg per mouse; Brenntag). For survival and therapy experiments, mice were vaccinated three times, starting at an average tumor size of 0.07 cm^3, while for immune response experiments mice were vaccinated twice with a one-week interval between vaccinations. Tumors were measured every 3-4 days using a digital vernier caliper, and the tumor volume was calculated using the formula: V=L×W2/2000, where V is tumor volume, L is the length of the tumor (longer diameter) and W is the width of the tumor (shorter diameter). Mice were monitored for tumor growth and survival. Mice were euthanized when the tumor volume reached 1.5 cm^3.

[2] = tested on: pMel-1 CD8 T cells; assay: Metabolomics and lipidomics of activated CD8 T cells; type: cell-based, mouse; settings: PARPi-treated vs gp100 activated, 48 h
Procedure: Targeted metabolomics method, developed in-house, was used to quantitate 270 endogenous metabolites using QTRAP® 7500 LC-MS/MS System (Sciex, MA, USA). For this purpose, 20 μL of PBS was added to the cell pellet and sample tube was plunged into dry ice for 30 seconds and 37° C. water bath for 90 seconds. This cycle was repeated for two more times and then samples were sonicated for 1 minute and 100 μL of extraction buffer (methanol/water 50/50) containing 200 ng/ml of debrisoquine (DBQ) as internal standard for positive mode and 200 ng/mL of 4-nitrobenzoic acid as internal standard for negative mode was added. The samples were vortexed for 1 min and kept on ice for 20 minutes followed by addition of 100 μL of ACN. The samples were incubated at −20° C. for 20 minutes for protein precipitation. The samples were centrifuged at 13,000 rpm for 20 minutes at 4° C. The supernatant was transferred to MS vial for LC-MS analysis. 20 μL of each prepared sample was mixed to generate the pooled QC sample.
Five microliter of the prepared sample was injected onto a Kinetex 2.6 μm polar C18 100 Å 100×3.0 mm (Phenomenex, CA, USA) using SIL-30AC autosampler (Shimadzu) connected with a high flow LC-30AD solvent delivery unit (Shimadzu) and CBM-20A communication bus module (Shimadzu) online with QTRAP 5500 (Sciex, MA, USA) operating in positive and negative ion mode. A binary solvent comprising of water with 0.1% formic acid (solvent A) and acetonitrile with 0.1% formic acid (solvent B) was used. The extracted metabolites were resolved at 0.2 mL/min flow rate. The LC gradient conditions were as follows: Initial—100% A, 0% B for 2.1 minutes; 14 minutes—5% A, 95% B till 15 minutes; 15.1 minutes—100% A, 0% B till 20 minutes. The auto sampler and oven were kept at 15° C. and 30° C., respectively. Source and gas setting for the method were as follow: curtain gas=40, CAD gas=9, ion spray voltage=1700 V in positive mode and ion spray voltage=1600 V in negative mode, temperature=350° C., ion source gas 1=30 and ion source gas 2=50. […]

[3] = tested on: human CD8 T cells; assay: In vitro-activated human CD8+ T cells, memory characteristics; type: cell-based; settings: anti-CD3/CD28 coupled beads for 72 h
Procedure: For evaluation of memory characteristics in human CD8+ T cells, naive CD8+ T cells were activated in the presence or absence of PARPi, by Dynabeads™ Human T-Activator CD3/CD28 (Thermo Fisher #11131), […]. Post-activation cells were gated upon CD8^+ T cell population and various characteristics were investigated as described in the Examples below.
A total of 0.1-0.2×10^6 cells per sample were stained for Live/Dead staining followed by fixation and permeabilization. For IFNγ and granzyme B (Gzm B) staining, BD Cytofix/Cytoperm (catalog no. 51-2090KZ) and BD Perm/Wash (catalog no. 51-2091KZ) buffer set were used according to the manufacturer's instructions (BD Pharmingen). CD8^+ T cells from tumor samples were stained similarly. Data acquisition was performed on a BD LSR II flow cytometer using the software FACS Diva v.9.0. Results were analyzed using FlowJo software (TreeStar). MitoFM, a green-fluorescent mitochondrial stain, which localizes to mitochondria, was used as described previously (Sukumar et al., Cell Metab 23 (1): 63-76, 2016).
To this end, human naïve CD8 T cells were activated with anti-CD3/CD28 coupled beads for 72 h.

Structure (SMILES): O=C(c1cc(Cc2n[nH]c(=O)c3ccccc23)ccc1F)N1CCN(C(=O)C2CC2)CC1 [olaparib]
- tumor growth and survival, enhancement of anti-tumor immune response of the vaccine ([1]; TC-1, PARPi 50 mg/kg IP daily in combination with HPV E7 vaccine): significantly retarding tumor growth and prolonging survival
- anti-tumor effect after depletion of CD8 T cells ([1]; TC-1, PARPi with vaccine, CD8 T cell depleting antibodies): loss of the anti-tumor effect
- mice survived ([1]; PARPi added to the vaccine (HPV E7)): 90%
- mice survived ([1]; treatment alone): 10%
- TAGs (lipidomic analysis) [2]: increased level
- metabolites related to TCA cycle (fumarate, malate, glutamate, FAD) [2]: significantly increased
- top 50 differentially expressed metabolites [2]: increased
- IFNγ expression [3]: significant increase
- number of CD45ROhiCCR7hi cells [3]: significant increase
- number of CD45ROhiCD62Lhi cells [3]: significant increase
